Source: patent US20070213686A1, “System and method for prevention of radiocontrast induced nephropathy” (priority 2003, published 2007)
Counter-ions that a name gives are not always drawn.

Columns and labels:
[1] = systemic regimens; nausea and vomiting, flushing, hypotension, tachycardia, hypokalemia, ST/T-wave changes, dizziness, dyspnea; cited from earlier work
[2] = test system: contrast nephropathy; settings: cited from earlier work
[3] = cited from earlier work
[4] = test system: hypovolemic dogs receiving contrast; settings: cited from earlier work
[5] = Intra-renal delivery of fenoldopam, renal artery blood flow; format: in vivo, human; settings: intra-renal delivery at about 0.1 and about 0.2 mcg/kg/min
Procedure: At the time of the procedure, a switch to local delivery can easily be made with the previously described bifurcated catheter. […] Therefore another titration (in this situation most frequently migrating upward) is performed according to further embodiments, starting at the systemic dose, and moving towards a tolerated local dose, for the duration of the intended catheterization. Post-procedure, if the specialized bifurcated catheter is preferably to be removed, then the administration could be returned to a systemic dose, with or without additional hydration concurrently.

[6] = Local renal papaverine, renal blood flow in human subjects; format: in vivo; settings: local renal doses of about 2 mg/min and about 3 mg/min

Row | SMILES | frequency of common side effects other than headache [1] [%] | efficacy in preventing contrast nephropathy, 0.2 vs 0.1 mcg/kg/min ([2]; 0.2 mcg/kg/min compared with 0.1 mcg/kg/min) | benefit over saline (CONTRAST trial) ([2]; 300 patients, 0.05-0.1 mcg/kg/min systemic IV over 12 hours) | renal function in high-risk patients undergoing contrast procedures ([2]; small studies incl. randomized, double blind, placebo-controlled trial, 0.05-0.5 mcg/kg/min for 4-6 hours, started prior to contrast) | increase in renal blood flow from baseline ([3]; normal volunteers, 0.1 mcg/kg/min) | increment in renal blood flow ([3]; patients with a mean serum creatinine of 2.6 mg/dL, 0.1 mcg/kg/min) [%] | renal vasodilation ([3]; systemic doses as low as approximately 0.01 through approximately 0.5 mcg/kg/min IV) | renal blood flow and renal function (glomerular filtration rate) [4] | renal artery blood flow [5] | renal blood flow rates [6]
1 | Oc1ccc(C2CNCCc3c2cc(O)c(O)c3Cl)cc1 (stereo not shown) [fenoldopam, fenoldopam mesylate] | ≤ 5 | greater efficacy | no benefit | attenuated worsening of renal function | approximately 40% | 16 | dose-dependent renal vasodilation | prevented reduction in both renal blood flow and renal function | significant and immediate increases in renal artery blood flow | 
2 | COc1ccc(Cc2nccc3cc(OC)c(OC)cc23)cc1OC [papaverine] |  |  |  |  |  |  |  |  |  | increase renal blood flow rates
